# The source made the active and inactive calls. The rule behind the calls is not given here.
# Tests used:
# [1] = test system: Cryptococcus neoformans; assay: Antifungal activity against Cryptococcus neoformans 32609 assessed as inhibition of fungal growth incubated for 72 hrs by CLSI based broth microdilution assay; assay type: functional
# [2] = test system: Saccharomyces cerevisiae; assay: Antifungal activity against recombinant Saccharomyces cerevisiae Y2462 overexpressing ScErg11/ScNcp1 assessed as inhibition of fungal growth incubated for 48 hrs by CLSI based broth microdilution assay; assay type: functional
# [3] = test system: Saccharomyces cerevisiae; assay: Antifungal activity against recombinant Saccharomyces cerevisiae Y2300 overexpressing ScErg11 assessed as inhibition of fungal growth incubated for 48 hrs by CLSI based broth microdilution assay; assay type: functional
# [4] = test system: Candida albicans; assay: Antifungal activity against Candida albicans SC5314 assessed as inhibition of fungal growth at 0.125 ug/ml after 12 hrs by TECAN plate reader analysis; assay type: functional, organism-based; settings: dose 0.125 µg/ml
# [5] = test system: Saccharomyces cerevisiae; assay: Antifungal activity against recombinant Saccharomyces cerevisiae Y2301 overexpressing ScErg11 Y140F mutant assessed as inhibition of fungal growth incubated for 48 hrs by CLSI based broth microdilution assay; assay type: functional
# [6] = target: T1, Lanosterol 14-alpha demethylase (Candida albicans (strain SC5314 / ATCC MYA-2876) (Yeast), UniProt P10613); assay: Inhibition of CYP51 in Candida albicans SC5314 assessed as ergosterol level at 0.5 ug/ml after 8 hrs by GC-MS analysis (reference value: 86.2 %); design: scale not given: the % may be the effect or the level left; settings: at 0.5 µg/mL
# [7] = test system: Candida albicans; assay: Antibiofilm activity against Candida albicans SC5314 assessed as inhibition of biofilm formation at 64 ug/mL incubated for 24 hrs by XTT assay relative to control; assay type: functional
# [8] = target: T1, Lanosterol 14-alpha demethylase; assay: Inhibition of CYP51 in Candida albicans SC5314 assessed as lanosterol level at 0.5 ug/ml after 8 hrs by GC-MS analysis (reference value: 5.9 %); design: scale not given: the % may be the effect or the level left; settings: at 0.5 µg/mL
# [9] = test system: Candida albicans; assay: Antifungal activity against Candida albicans 10231 assessed as inhibition of fungal growth incubated for 48 hrs by CLSI based broth microdilution assay; assay type: functional
# [10] = test system: Saccharomyces cerevisiae; assay: Antifungal activity against recombinant Saccharomyces cerevisiae Y525 overexpressing CaMdr1 assessed as inhibition of fungal growth incubated for 48 hrs by CLSI based broth microdilution assay; assay type: functional
# [11] = test system: Candida albicans; assay: Antifungal activity against fluconazole-resistant Candida albicans 904 assessed as inhibition of fungal growth incubated for 48 hrs by CLSI based broth microdilution assay; assay type: functional
# [12] = test system: Candida albicans; assay: Antifungal activity against Candida albicans SC5314 assessed as inhibition of hyphae length at 0.0625 to 0.5 ug/ml after 3 hrs by inverted microscopic analysis; assay type: functional, organism-based; settings: dose 0.0625-0.5 µg/ml
# [13] = test system: Candida parapsilosis; assay: Antifungal activity against Candida parapsilosis 22019 assessed as inhibition of fungal growth incubated for 48 hrs by CLSI based broth microdilution assay; assay type: functional; settings: Lodderomyces parapsilosis
# [14] = test system: Saccharomyces cerevisiae; assay: Antifungal activity against recombinant Saccharomyces cerevisiae Y2766 overexpressing CauCdr1 assessed as inhibition of fungal growth incubated for 48 hrs by CLSI based broth microdilution assay; assay type: functional
# [15] = target: T1, Lanosterol 14-alpha demethylase; assay: Inhibition of CYP51 in Candida albicans SC5314 assessed as eburicol level at 0.5 ug/ml after 8 hrs by GC-MS analysis relative to control; design: scale not given: the % may be the effect or the level left; settings: at 0.5 µg/mL
# [16] = test system: Candida albicans; assay: Antifungal activity against Candida albicans SC5314 assessed as inhibition of hyphae formation by measuring pseudohyphae at 1 ug/ml after 3 hrs by inverted microscopic analysis; assay type: functional, organism-based; settings: dose 1.0 µg/ml
# [17] = test system: Candida albicans; assay: Antifungal activity against Candida albicans SC5314 assessed as inhibition of fungal growth at 2 ug/ml after 36 hrs by TECAN plate reader analysis; assay type: functional, organism-based; settings: dose 2.0 µg/ml
# [18] = test system: Pichia kudriavzevii; assay: Antifungal activity against Candida krusei 4996 assessed as inhibition of fungal growth incubated for 48 hrs by CLSI based broth microdilution assay; assay type: functional
# [19] = test system: Saccharomyces cerevisiae; assay: Antifungal activity against recombinant Saccharomyces cerevisiae Y2721 overexpressing CpErg11/CpCpr assessed as inhibition of fungal growth incubated for 48 hrs by CLSI based broth microdilution assay; assay type: functional
# [20] = target: T1, Lanosterol 14-alpha demethylase; assay: Inhibition of CYP51 in Candida albicans SC5314 assessed as obtusifoliol level at 0.5 ug/ml after 8 hrs by GC-MS analysis relative to control; design: scale not given: the % may be the effect or the level left; settings: at 0.5 µg/mL
# [21] = test system: Saccharomyces cerevisiae; assay: Antifungal activity against recombinant Saccharomyces cerevisiae Y2411 overexpressing ScErg11 assessed as inhibition of fungal growth incubated for 48 hrs by CLSI based broth microdilution assay; assay type: functional
# [22] = test system: Saccharomyces cerevisiae; assay: Antifungal activity against recombinant Saccharomyces cerevisiae Y570 overexpressing CaCdr1 assessed as inhibition of fungal growth incubated for 48 hrs by CLSI based broth microdilution assay; assay type: functional
# [23] = test system: Saccharomyces cerevisiae; assay: Antifungal activity against recombinant Saccharomyces cerevisiae Y2513 overexpressing ScErg11 Y140H mutant assessed as inhibition of fungal growth incubated for 48 hrs by CLSI based broth microdilution assay; assay type: functional
# [24] = test system: Cell membrane; assay: Induction of membrane permeabilization in Candida albicans SC5314 assessed as increase in fluorescence at 0.5 ug/ml incubated for 8 hrs by propidium iodide staining based fluorescence microscopic analysis; settings: dose 0.5 µg/ml
# [25] = test system: [Candida] auris; assay: Antifungal activity against fluconazole-resistant Candida auris 918 assessed as inhibition of fungal growth incubated for 48 hrs by CLSI based broth microdilution assay; assay type: functional; settings: Candidozyma auris
# [26] = test system: Saccharomyces cerevisiae; assay: Antifungal activity against recombinant Saccharomyces cerevisiae Y2459 overexpressing CaErg11/CaCpr assessed as inhibition of fungal growth incubated for 48 hrs by CLSI based broth microdilution assay; assay type: functional
# [27] = test system: Candida albicans; assay: Antifungal activity against Candida albicans SC5314 assessed as inhibition of fungal growth incubated for 48 hrs by CLSI based broth microdilution assay; assay type: functional
# [28] = test system: Candida albicans; assay: Antifungal activity against Candida albicans SC5314 assessed as inhibition of hyphae formation at 0.0625 to 0.5 ug/ml after 3 hrs by inverted microscopic analysis; assay type: functional, organism-based; settings: dose 0.0625-0.5 µg/ml
# [29] = test system: Nakaseomyces glabratus; assay: Antifungal activity against Candida glabrata 537 assessed as inhibition of fungal growth incubated for 48 hrs by CLSI based broth microdilution assay; assay type: functional
# [30] = test system: Saccharomyces cerevisiae; assay: Antifungal activity against recombinant Saccharomyces cerevisiae Y2765 overexpressing CauMdr1 assessed as inhibition of fungal growth incubated for 48 hrs by CLSI based broth microdilution assay; assay type: functional
# [31] = test system: Candida tropicalis; assay: Antifungal activity against Candida tropicalis 8915 assessed as inhibition of fungal growth incubated for 48 hrs by CLSI based broth microdilution assay; assay type: functional
# [32] = test system: Candida albicans; assay: Antifungal activity against fluconazole-resistant Candida albicans 901 assessed as inhibition of fungal growth incubated for 48 hrs by CLSI based broth microdilution assay; assay type: functional
# [33] = test system: [Candida] auris; assay: Antifungal activity against fluconazole-resistant Candida auris 919 assessed as inhibition of fungal growth incubated for 48 hrs by CLSI based broth microdilution assay; assay type: functional; settings: Candidozyma auris
# [34] = test system: Candida albicans; assay: Antibiofilm activity against Candida albicans SC5314 assessed as increase in matured biofilm distruption at 64 ug/ml incubated for 24 hrs by XTT assay relative to control; assay type: functional; settings: dose 64 µg/ml
# [35] = test system: Saccharomyces cerevisiae; assay: Antifungal activity against recombinant Saccharomyces cerevisiae Y2716 overexpressing CpErg11 Y132F mutant/ CpCpr assessed as inhibition of fungal growth incubated for 48 hrs by CLSI based broth microdilution assay; assay type: functional
# [36] = test system: [Candida] auris; assay: Antifungal activity against fluconazole-resistant Candida auris 891 assessed as inhibition of fungal growth incubated for 48 hrs by CLSI based broth microdilution assay; assay type: functional; settings: Candidozyma auris
# [37] = test system: Saccharomyces cerevisiae; assay: Antifungal activity against recombinant Saccharomyces cerevisiae Y2769 overexpressing CauErg11 K143R mutant assessed as inhibition of fungal growth incubated for 48 hrs by CLSI based broth microdilution assay; assay type: functional
# [38] = test system: Cell membrane; assay: Induction of membrane permeabilization in Candida albicans SC5314 assessed as increase in fluorescence at 4 ug/ml incubated for 8 hrs by propidium iodide staining based fluorescence microscopic analysis; settings: dose 4.0 µg/ml
# [39] = test system: Saccharomyces cerevisiae; assay: Antifungal activity against recombinant Saccharomyces cerevisiae Y2767 overexpressing CauErg11 assessed as inhibition of fungal growth incubated for 48 hrs by CLSI based broth microdilution assay; assay type: functional
# [40] = target: T1, Lanosterol 14-alpha demethylase; assay: Inhibition of CYP51 in Candida albicans SC5314 assessed as 14alpha-methylfecosterol level at 0.5 ug/ml after 8 hrs by GC-MS analysis relative to control; design: scale not given: the % may be the effect or the level left; settings: at 0.5 µg/mL
# [41] = test system: Saccharomyces cerevisiae; assay: Antifungal activity against recombinant Saccharomyces cerevisiae Y2374 overexpressing CgErg11 assessed as inhibition of fungal growth incubated for 48 hrs by CLSI based broth microdilution assay; assay type: functional
# [42] = Cytotoxicity against HUVEC cells assessed as cell viability at 128 ug/ml incubated for 24 hrs by CCK-8 assay relative to control; assay type: toxicity, cell-based; settings: human, at 128 µg/mL, read-out: Activity
# [43] = test system: Saccharomyces cerevisiae; assay: Antifungal activity against recombinant Saccharomyces cerevisiae Y2768 overexpressing CauErg11 T132F mutant assessed as inhibition of fungal growth incubated for 48 hrs by CLSI based broth microdilution assay; assay type: functional
# [44] = test system: Candida albicans; assay: Antifungal activity against Candida albicans SC5314 assessed as inhibition of hyphae length at 1 ug/ml after 3 hrs by inverted microscopic analysis; assay type: functional, organism-based; settings: dose 1.0 µg/ml
# [45] = test system: Saccharomyces cerevisiae; assay: Antifungal activity against recombinant Saccharomyces cerevisiae Y2711 overexpressing CnErg11 assessed as inhibition of fungal growth incubated for 48 hrs by CLSI based broth microdilution assay; assay type: functional
# T1 sequence (P10613 whole entry): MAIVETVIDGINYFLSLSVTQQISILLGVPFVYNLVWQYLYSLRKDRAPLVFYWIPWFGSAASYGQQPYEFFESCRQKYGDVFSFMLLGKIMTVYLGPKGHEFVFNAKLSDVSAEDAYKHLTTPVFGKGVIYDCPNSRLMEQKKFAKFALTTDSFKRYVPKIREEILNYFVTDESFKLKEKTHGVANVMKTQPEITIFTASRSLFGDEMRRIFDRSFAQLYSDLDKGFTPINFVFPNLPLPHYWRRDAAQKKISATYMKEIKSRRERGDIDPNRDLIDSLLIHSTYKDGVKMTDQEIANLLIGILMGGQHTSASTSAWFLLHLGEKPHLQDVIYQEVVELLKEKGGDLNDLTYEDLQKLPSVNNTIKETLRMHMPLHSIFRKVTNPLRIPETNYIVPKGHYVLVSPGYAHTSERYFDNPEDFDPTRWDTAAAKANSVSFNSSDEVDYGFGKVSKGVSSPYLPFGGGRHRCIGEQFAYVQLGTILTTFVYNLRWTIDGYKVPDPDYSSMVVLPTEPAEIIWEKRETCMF
compound,measurement,setting,value
OC(Cn1cncn1)(Cn1cncn1)c1ccc(F)cc1F [FLUCONAZOLE],MIC,[1],2 µg/mL
same,MIC,[2],8 µg/mL
same,MIC,[3],4 µg/mL
same,inhibition,[4],inactive
same,MIC,[5],4 µg/mL
same,Activity,[6],39.8%
same,inhibition at 64 µg/mL,[7],~28%
same,Activity,[8],38%
same,MIC,[9],> 64 µg/mL
same,MIC,[10],> 64 µg/mL
same,MIC,[11],> 256 µg/mL
same,inhibition,[12],inactive
same,MIC,[13],4 µg/mL
same,MIC,[14],> 64 µg/mL
same,Activity,[15],2%
same,inhibition,[16],Active
same,inhibition,[17],inactive
same,MIC,[18],64 µg/mL
same,MIC,[19],4 µg/mL
same,Activity,[20],2%
same,MIC,[21],1 µg/mL
same,MIC,[22],> 64 µg/mL
same,MIC,[23],4 µg/mL
same,Activity,[24],inactive
same,MIC,[25],> 256 µg/mL
same,MIC,[26],2 µg/mL
same,MIC,[27],0.5 µg/mL
same,inhibition,[28],inactive
same,MIC,[29],1 µg/mL
same,MIC,[30],64 µg/mL
same,MIC,[31],> 64 µg/mL
same,MIC,[32],> 256 µg/mL
same,MIC,[33],> 256 µg/mL
same,Activity,[34],38%
same,MIC,[35],8 µg/mL
same,MIC,[36],> 256 µg/mL
same,MIC,[37],32 µg/mL
same,Activity,[38],Active
same,MIC,[39],4 µg/mL
same,Activity,[40],20%
same,MIC,[41],4 µg/mL
same,"viability at 24 h, 128 ug/ml",[42],83%
same,MIC,[43],64 µg/mL
same,inhibition,[44],Active
same,MIC,[45],0.5 µg/mL
